The record followed here is patent publication US6890944B2, “Organic acid salt of amlodipine” (priority 2002, dated 2005).

What all share (assay type): physicochemical
Data set [1] can be described thus: Test for light stability: aqueous solutions stored at 25° C. for 4 weeks exposed to sunlight (HPLC). The settings on record: 25° C. sunlight; for Content (HPLC): aqueous solution, stored for 4 weeks; for colour change: light stability test, 4 weeks. How it is done: The resulting aqueous solutions were stored at 25° C. for 4 weeks while being exposed to sunlight. A measurement was made of the contents of the salts with resort to HPLC under the same conditions as in the chemical stability test.

Data set [2] can be described thus: Test for solubility in various solvents. To be noted: based on weight of amlodipine, note: dissolved at 37° C.
Data set [3] can be described thus: Chemical stability in solid state, accelerated test at 60° C. (HPLC content).
Data set [4] is described as follows: Test for hygroscopicity: water content (K.F. water %) at 25° C. at different humidity levels. The settings on record: for water content (K.F. water %): 25° C.
Data set [5] in a line: Chemical stability in aqueous state, stored at 25° C. for 4 weeks in complete darkness (HPLC). The settings on record: in distilled water. On the procedure:
The resulting aqueous solutions were stored at 25° C. for 4 weeks in complete darkness, after which a measurement was made of the contents of the salts with resort to HPLC under the same conditions as in the solid state.

Where two headings read alike, the source gives them in different places.

With `CCOC(=O)C1=C(COCCN)NC(C)=C(C(=O)OC)C1c1ccccc1Cl.Cc1ccc(S(=O)(=O)O)cc1` (centres unmarked) [Tosylate, Amlodipine Para-toluenesulfonate], the “Content (HPLC)” value in data set [1] stood at 72.0%.

The solubility is the dissolved amount per volume that the medium holds. Take `CCOC(=O)C1=C(COCCN)NC(C)=C(C(=O)OC)C1c1ccccc1Cl` (centres unmarked) [Besylate, amlodipine besylate, reference compound]: the solubility in data set [2] (Dist. Water, 25° C. (text)) was 1.29 mg/mL; in data set [2] (pH 2, ionic strength 0.2 buffer, 25° C. (text)), 1.29 mg/mL; in data set [2] (pH 4, ionic strength 0.2 buffer, 25° C. (text)), 1.32 mg/mL; in data set [2] (pH 6, ionic strength 0.2 buffer, 25° C.), 1.28 mg/mL; in data set [2] (pH 7, ionic strength 0.2 buffer, 25° C.), 0.64 mg/mL; in data set [2] (pH 7.4, ionic strength 0.2 buffer, 25° C. (text)), 1.35 mg/mL. In data set [2] (pH 8, ionic strength 0.2 buffer, 25° C. (text)), this molecule showed a solubility of 1.25 mg/mL. The HPLC content in data set [3] (1 week) came to 99.6%; in data set [3] (2 weeks) it was 99.4%; in data set [3] (4 weeks), 99.2%; in data set [3] (initial) it was 99.6%. In addition, the “Content (HPLC)” value in data set [1] is listed as 82.5%. For the same molecule, the colour change result in data set [1] (listed as amlodipine besylate) is “turned yellow from white”. The “water content (K.F. water %)” value in data set [4] (25% RH, 1 week) was found to be 0.10%; in data set [4] (60% RH, 1 week), 0.09%; in data set [4] (75% RH, 1 week) it was 0.15%; in data set [4] (Initial), 0.14%.

For `CCOC(=O)C1=C(COCCN)NC(C)=C(C(=O)OC)C1c1ccccc1Cl.O=C(O)Cc1ccc(O)cc1` (centres unmarked) [amlodipine p-hydroxyphenylacetate], the solubility worked out at 3.0 mg/mL in data set [2] (Dist. Water, 25° C. (text), listed as p-Hydroxyphenylacetate); 2.2 mg/mL in data set [2] (buffer pH 6, ionic strength 0.2, 25 °C, pH 6, aqueous buffer, pH 6, ionic strength 0.2 buffer, 25° C., read-out: solubility); 1.1 mg/mL in data set [2] (buffer pH 7, ionic strength 0.2, 25 °C, pH 7, aqueous buffer, pH 7, ionic strength 0.2 buffer, 25° C., read-out: solubility); 8.9 mg/mL in data set [2] (pH 2, ionic strength 0.2 buffer, 25° C. (text), listed as p-Hydroxyphenylacetate); 8.8 mg/mL in data set [2] (pH 4, ionic strength 0.2 buffer, 25° C. (text), listed as p-Hydroxyphenylacetate); 4.0 mg/mL in data set [2] (pH 7.4, ionic strength 0.2 buffer, 25° C. (text), listed as p-Hydroxyphenylacetate). Besides, in data set [2] (pH 8, ionic strength 0.2 buffer, 25° C. (text), listed as p-Hydroxyphenylacetate), the solubility was determined as 3.0 mg/mL. The HPLC content in data set [3] (1 week) turned out to be 99.6%; in data set [3] (2 weeks), 99.5%; in data set [3] (4 weeks) it was 99.4%; in data set [3] (initial), 99.7%. In data set [1], the “Content (HPLC)” value was 98.9%. Moreover, in data set [1], the colour change result is recorded as “kept its original white color”. For the same molecule, the “water content (K.F. water %)” value in data set [4] (25% RH, 1 week, listed as p-hydroxyphenylacetate) is on record as 0.08%; in data set [4] (60% RH, 1 week, listed as p-hydroxyphenylacetate) it was 0.1%; in data set [4] (75% RH, 1 week, listed as p-hydroxyphenylacetate), 0.14%; in data set [4] (90% RH, 1 week), 0.17%; in data set [4] (Initial, listed as p-hydroxyphenylacetate), 0.15%. This molecule also registered a hygroscopicity in data set [4] (relative humidity 95%) of at most 0.5%. The “decomposition products / content change (HPLC)” value in data set [5] was “neither decomposition products nor content change is found”.
